From patent US8778966B2, “Quinolinone derivatives as PARP and tank inhibitors” (Janssen Pharmaceutica, NV, priority 2007, dated 2014)

What was measured:
PC3 cells = experiment: EB1 Comet (microtubule disruption) assay; assay type: cell-based, human; conditions: Homo sapiens, PC-3, 1 h, 1 hour treatment, read-out: EB1 pLAC (converted)
Experimental: The Eb1 Comet assay relies on the detection of the Eb1 protein at the plus end of polymerizing microtubules (Mimori-Kiyosue, 2000) using indirect immunofluorescence. Disruption of microtubule dynamics through de-polymerization or stabilization results in a de-localization of Eb1 from the growing microtubule ends and this is visualized by the disappearance of Eb1 containing cytoplasmic foci.
Briefly, human prostate cancer PC3 cells obtained from the American Type Culture Collection were grown in 96-well plates (Greiner, cat. no. 655090) in HAM's F12 medium as recommended by the provider (ATCC). The cells were treated for 1 hour at 37° C. with compounds dissolved in DMSO (0.6% final DMSO concentration). The culture medium was then removed by aspiration and the cells were fixed by adding cold methanol (−20 C). After a 15 min. incubation at −20 C, the cells were washed twice with DPBS (Gibco) containing 0.5% Triton X-100. Mouse Eb1 antibody (BD Transduction Laboratories, cat. no. 610534) was added to the cells (1/250 dilution in DPBS containing 1% BSA) and incubated overnight at room temperature. The antibody was subsequently removed and the cells washed twice with DPBS, 0.5% Triton X-100. Secondary goat anti-mouse antibody conjugated to Alexa 488 fluorescent dye (Molecular Probes) was added at a 1/500 dilution in DPBS, 1% BSA and incubated for 1 hour at 37 C. The cells were washed twice with DPBS, 0.5% Triton X-100 and then DPBS containing 0.5% Triton X-100 and 1/5000 Hoechst 33342 (Molecular Probes) was added. Microscopy based Eb1 foci visualization was carried out using an IN Cell Analyser 1000 (Amersham Biosciences) using a 20× objective. Compound dependent microtubule disruption was visually determined by the disappearance in Eb1 foci. The lowest active concentration (LAC) was determined as the concentration where Eb1 foci were absent in at least 50% of the treated cells.

HCT116 cells = experiment: Mitotic arrest assay on HCT116 cells (phospho-histone H3 Ser10); assay type: cell-based, human; conditions: lowest active dose; for minimal effective concentration: Homo sapiens, HCT-116, HCT116 cells, read-out: Mitotic arrest HCT116 LAD (converted)
Text: Phosphorylation of histone H3 is tightly correlated with chromosome condensation during both mitosis and meiosis. The assay is a cellular immunosorbent assay wherein the sole antibody is labelled with a detectable conjugate. The phospho-histone H3 (ser10) antibody detects endogenous levels of histone H3 only when phosphorylated at serine 10. […] In parallel with antibody detection, the nuclei of the cells are stained with Hoechst 33342 for cell-counting. Cells are detected and analysed using the InCell Analyzer 1000 from GE Healthcare. Since both the antibody-detection as well as the Hoechst-staining are in the nucleus, the dual area object intensity algorithm is used for analysing the wells.
All compounds tested were dissolved in DMSO and further dilutions were made in culture medium. Final DMSO concentrations never exceeded 0.1% (v/v).
HCT116 cells (supplier: ATCC) (human colon carcinoma cell line) were cultivated in Mc Coy's 5 A medium (supplier: Gibco) supplemented with 10% foetal calf serum (FCS), 2 mM L-glutamine and gentamycin at 37° C. in a humidified incubator with 5% CO2.
HCT116 cells were seeded at 20.000 cells per well in a 96 well plate (black/clear bottom, poly-D-lysine coated, supplier Greiner), cultured overnight to adhere to the bottom of the plate and treated with compound for 6 hours at 37° C. in a humidified incubator. After incubation, the medium was removed and cells were fixed using 100 μl/well formaldehyde (Accustain®, Formaline solution 10% neutral buffered, contains 4% formaldehyde w/v, supplier: Sigma) was added. After incubation for 15 minutes at room temperature, the formaldehyde was removed and cells were incubated with methanol (−20° C.) for 15 minutes at room temperature. After incubation, cells were washed once with phosphate-buffered saline (PBS —CaCl2, —MgCl2, suppier: Gibco)/0.05% Tween 20. The anti-phospho-histone H3 (Ser10) Alexa Fluor 488 antibody (supplier: Cell signalling) is used for detection of the cells inmitosis. The antibody was diluted 1/50 in 5% bovine serum albumins (BSA) and 50 μl/well was used for incubation overnight at room temperature in the dark.
A 1/2000 dilution of Hoechtst 33342 (10 mg/ml, supplier: Invitrogen) was made and 100 μl/well was added for at least 30 minutes before acquiring images. The absorbance at dual wavelengths of 360/480 nm was measured using the InCell Analyzer 1000 from GE Healthcare and the results were then analyzed.
For each experiment, controls (containing no drug) and a blank incubation (containing no cells or drugs) were run in parallel. Analysis was done in triplicate. Low cell count wells were invalidated. The blank value was subtracted from all control and sample values and divided by the standard deviation of the measurements. The compounds were considered active when the obtained value (sigma) was >5. Herein the effects of test compounds are expressed as the lowest dose giving a sigma value of >5 (LAD) (see table F-2).

SMILES | minimal effective concentration (PC3 cells) | minimal effective concentration (HCT116 cells) | Mitotic arrest HCT116 LAD (HCT116 cells; HCT116 cells, the values are: pLAD (−log M lowest active dose))
C#Cc1cccc(CC(C)(C#N)c2ccc3cc(CC)c(=O)[nH]c3c2)c1 (racemic) [Compound 168] | 0.1 µM | 0.0316 µM | 
CCc1cc2ccc(C(C)(C#N)CC3COc4ccccc4O3)cc2[nH]c1=O (single isomer, unassigned) [Compound 48] | 1 µM |  | 6.5
CCc1cc2ccc([C@@](C)(C#N)CCOc3ccccc3)cc2[nH]c1=O (single isomer, unassigned) [Compound 150] |  | 0.316 µM | 
Cc1cc2ccc([C@@](C)(C#N)CCOc3ccccc3)cc2[nH]c1=O (single isomer, unassigned) [Compound 164] | 0.316 µM | 0.1 µM | 
CCc1cc2ccc(C(C)(C#N)Cc3cccc(C(=O)O)c3)cc2[nH]c1=O (stereo not drawn) [Compound 10] |  | 10 µM | 
CCc1cc2ccc(C(C)(C#N)Cc3cccc(-c4nc(C)no4)c3)cc2[nH]c1=O (stereo not drawn) [Compound 11] | 1 µM | 0.316 µM | 
CCc1cc2ccc(C(C)(C#N)Cc3cccc(C(=O)OC)c3)cc2[nH]c1=O (stereo not drawn) [Compound 12] | 0.0316 µM | 0.1 µM | 
CCc1cc2ccc(C(C)(C#N)Cc3cccc(C(=O)NC)c3)cc2[nH]c1=O (stereo not drawn) [Compound 13] |  | 1 µM | 
CCc1cc2ccc(C(C)(C#N)Cc3cccc(NS(C)(=O)=O)c3)cc2[nH]c1=O (stereo not drawn) [Compound 14] |  | 10 µM | 
CCc1cc2ccc(C(C)(C#N)Cc3cccc(N)c3)cc2[nH]c1=O (stereo not drawn) [Compound 15] | 3.16 µM | 1 µM | 
CCc1cc2ccc(C(C)(C#N)Cc3cccc(NC(=O)N4CCOCC4)c3)cc2[nH]c1=O (stereo not drawn) [Compound 16] |  | 10 µM | 
CCc1cc2ccc(C(C)(C#N)Cc3ccccc3Br)cc2[nH]c1=O (stereo not drawn) [Compound 104] | 0.316 µM | 0.316 µM | 
CCc1cc2ccc(C(C)(C#N)Cc3ccccc3C)cc2[nH]c1=O (stereo not drawn) [Compound 105] | 0.316 µM | 0.1 µM | 
CCc1cc2ccc(C(C)(C#N)Cc3ccccc3F)cc2[nH]c1=O (stereo not drawn) [Compound 106] | 0.316 µM | 0.1 µM | 
CCc1cc2ccc(C(C)(C#N)Cc3cccc(C)c3)cc2[nH]c1=O (stereo not drawn) [Compound 107] | 1 µM | 0.316 µM | 
CCc1cc2ccc(C(C)(C#N)Cc3ccc(C(F)(F)F)cc3)cc2[nH]c1=O (stereo not drawn) [Compound 108] |  | 3.16 µM | 
CCc1cc2ccc(C(C)(C#N)Cc3cccc(C(F)(F)F)c3)cc2[nH]c1=O (stereo not drawn) [Compound 109] | 3.16 µM | 0.316 µM | 
CCc1cc2ccc(C(C)(C#N)Cc3cccc(OC(F)(F)F)c3)cc2[nH]c1=O (stereo not drawn) [Compound 110] | 0.1 µM | 0.316 µM | 
CCc1cc2ccc(C(C)(C#N)Cc3ccc(C#N)cc3)cc2[nH]c1=O (stereo not drawn) [Compound 111] |  | 3.16 µM | 
CCc1cc2ccc(C(C)(C#N)Cc3cccc(F)c3)cc2[nH]c1=O (stereo not drawn) [Compound 112] | 1 µM | 0.316 µM | 
CCc1cc2ccc(C(C)(C#N)Cc3cccc(OC)c3)cc2[nH]c1=O (stereo not drawn) [Compound 113] | > 10 µM | 0.316 µM | 
CCc1cc2ccc(C(C)(C#N)Cc3ccc(OC(F)(F)F)cc3)cc2[nH]c1=O (stereo not drawn) [Compound 114] | 1 µM | 1 µM | 
CCc1cc2ccc(C(C)(C#N)Cc3ccc(F)cc3)cc2[nH]c1=O (stereo not drawn) [Compound 115] |  | 0.316 µM | 

SMILES | minimal effective concentration (PC3 cells) | minimal effective concentration (HCT116 cells) | Mitotic arrest HCT116 LAD (HCT116 cells; HCT116 cells, the values are: pLAD (−log M lowest active dose))
CCc1cc2ccc(C(C)(C#N)Cc3c(F)c(F)c(F)c(F)c3F)cc2[nH]c1=O (stereo not drawn) [Compound 116] | 0.316 µM | 0.1 µM | 
CCc1cc2ccc(C(C)(C#N)Cc3ccc(C)cc3)cc2[nH]c1=O (stereo not drawn) [Compound 117] |  | 1 µM | 
CCc1cc2ccc(C(C)(C#N)Cc3ccc(Br)cc3)cc2[nH]c1=O (stereo not drawn) [Compound 118] | 3.16 µM | 1 µM | 
CCc1cc2ccc(C(C)(C#N)Cc3ccc(OC)cc3)cc2[nH]c1=O (stereo not drawn) [Compound 119] | 3.16 µM | 1 µM | 
CCc1cc2ccc(C(C)(C#N)Cc3cccc(F)c3F)cc2[nH]c1=O (stereo not drawn) [Compound 120] | 0.316 µM | 0.1 µM | 
CCc1cc2ccc(C(C)(C#N)Cc3cccc(Cl)c3Cl)cc2[nH]c1=O (stereo not drawn) [Compound 121] | 0.316 µM | 0.316 µM | 
CCc1cc2ccc(C(C)(C#N)Cc3ccc4ccccc4c3)cc2[nH]c1=O (stereo not drawn) [Compound 122] | 1 µM | 0.316 µM | 
CCc1cc2ccc(C(C)(C#N)Cc3ccc4c(c3)nnn4C)cc2[nH]c1=O (stereo not drawn) [Compound 123] | 3.16 µM | 3.16 µM | 
CCc1cc2ccc(C(C)(C#N)Cc3ccc4c(c3)OCCO4)cc2[nH]c1=O (stereo not drawn) [Compound 124] | 1 µM | 0.316 µM | 
CCc1cc2ccc(C(C)(C#N)Cc3cc(C)cc(C)c3)cc2[nH]c1=O (stereo not drawn) [Compound 125] | 0.1 µM | 0.1 µM | 
CCc1cc2ccc(C(C)(C#N)Cc3cc(C(F)(F)F)cc(C(F)(F)F)c3)cc2[nH]c1=O (stereo not drawn) [Compound 131] |  | 3.16 µM | 
CCc1cc2ccc(C(C)(C#N)Cc3cc(Br)cc(Br)c3)cc2[nH]c1=O (stereo not drawn) [Compound 133] |  | 0.1 µM | 
CCc1cc2ccc(C(C)(C#N)CCOc3ccc(Cl)cc3)cc2[nH]c1=O (stereo not drawn) [Compound 146] |  | 0.316 µM | 
CCc1cc2ccc(C(C)(C#N)CCOc3ccc(C)cc3)cc2[nH]c1=O (stereo not drawn) [Compound 149] |  | 0.316 µM | 
CCc1cc2ccc(C(C)(C#N)CCOc3ccccc3Cl)cc2[nH]c1=O (stereo not drawn) [Compound 152] |  | 0.316 µM | 
CCc1cc2ccc(C(C)(C#N)CCOc3ccccc3Br)cc2[nH]c1=O (stereo not drawn) [Compound 153] |  | 0.316 µM | 
CCc1cc2ccc(C(C)(C#N)CCOc3ccc(SC)cc3)cc2[nH]c1=O (stereo not drawn) [Compound 155] |  | 1 µM | 
CCc1cc2ccc(C(C)(C#N)CCOc3ccccc3C(C)=O)cc2[nH]c1=O (stereo not drawn) [Compound 159] |  | 3.16 µM | 
CCc1cc2ccc(C(C)(C#N)CCOc3ccc4oc(C)c(C)c4c3)cc2[nH]c1=O (stereo not drawn) [Compound 162] |  | 3.16 µM | 
CCc1cc2ccc(C(C)(C#N)CCOc3cccc4c3OCCO4)cc2[nH]c1=O (stereo not drawn) [Compound 163] |  | 1 µM | 
CCc1cc2ccc(C(C#N)(CCOc3ccccc3)C3CC3)cc2[nH]c1=O (stereo not drawn) [Compound 166] |  | 1 µM | 
CCc1cc2ccc(C(C)(C#N)CCOc3ccc(C(C)(C)C)cc3)cc2[nH]c1=O (stereo not drawn) [Compound 167] |  | 1 µM | 
